According to patent publication US20250049832A1, “CRYSTAL FORM OF NUCLEOSIDE COMPOUND” (priority 2021, published 2025):
Converted amounts (≈) assume the structure as drawn.

How the values were obtained:
[1] = Text: (§1) The compound represented by the formula ATV014 is a derivative of the compound GS-441524.
[2] = Activity of ATV014 compared to GS-441524 (inventor's research)
Text: as §1

[3] = system: SARS-CoV-2; conditions: in vivo activity tests in mice; cited from earlier work
[4] = Dynamic vapor sorption analysis (DVS), hygroscopicity; type: physicochemical; conditions: for DVS Hygroscopic weight gain %: 25° C., batch 41579-025-C5
Description: Vapor sorption/desorption data of the sample was obtained using DVS Intrinsic. A sample of 10-50 mg was weighed and placed in the sample chamber for automatic weighing. Parameters were set according to Table 1 to analyze the hygroscopicity of the sample.
The ATV014 crystalline form I obtained in Example 2 with batch number 41579-025-C5 was subjected to PLM (Polarized Light Microscopy Analysis), XRPD (X-ray Powder Diffraction), DSC (Differential Scanning calorimetry), TGA (Thermogravimetric Analysis), and DVS (Dynamic Vapor Sorption Instrument) testing.

[5] = physchem; type: physicochemical
Description: Based on the salt screening study results, the solubility of ATV014 crystalline form I obtained in Example 2, batch number 41579-025-C5, was determined at 37° C. in FaSSIF, FeSSIF, SGF, and water at 0.5 h, 2 h, and 24 h. The solubility of the sample is pH-dependent, meaning that the lower the pH, the higher the solubility.

[6] = Solid stability study (XRPD and HPLC purity after storage); type: physicochemical
Text: X-ray powder diffraction patterns were collected using a zero-background sample plate on a Bruker D8 Advance X-ray diffractometer equipped with an autosampler. The radiation source used was Cu Kα (λ=1.5418 Å), with the X-ray tube voltage set at 40 kV and the X-ray tube current set at 40 mA. The divergence slit for the X-rays was 0.6 mm. A suitable amount of the sample was placed in the center of the zero-background sample plate under the ambient condition and lightly pressed with a clean glass slide to obtain a smooth, flat surface. The zero-background sample holder was then fixed. Diffraction analysis of the sample was performed with a scan step size of 0.02° (2θ) over a range of 3-40° (2θ). The software used for data collection was DIFFRAC.COMMANDER, and the data were analyzed and presented using DIFFRAC.EVA. The instrument used for liquid chromatography analysis is the Agilent HPLC 1260 series. [table] The ATV014 crystalline form I obtained from Example 2, batch number 41579-025-C1, was used for solid stability studies. The samples were placed under the conditions shown in Table 5, and then their XRPD and purity were tested.

[7] = 40° C./75% RH, open container, 7 days
[8] = 60° C., closed container, 7 days
[9] = Room temperature/92.5% RH, open container, 7 days

N#C[C@@]1(c2ccc3c(N)ncnn23)O[C@H](COC(=O)C2CCCCC2)[C@@H](O)[C@H]1O [ATV014]
bioavailability compared to the compound GS-441524 [1]: better | activity compared to the compound GS-441524 [2]: better

N#C[C@@]1(c2ccc3c(N)ncnn23)O[C@H](CO)[C@@H](O)[C@H]1O [GS-441524]
antiviral activity compared to Remdesivir [3]: superior antiviral activity compared to Remdesivir

N#C[C@@]1(c2ccc3c(N)ncnn23)O[C@H](COC(=O)C2CCCCC2)[C@@H](O)[C@H]1O [ATV014 crystalline form I]
hygroscopicity (DVS results) [4]: low hygroscopicity | DVS Hygroscopic weight gain % ([4]; 80% RH): 80% RH: 0.31%. | DVS Hygroscopic weight gain % ([4]; 90% RH): 90% RH: 0.40%. | Crystalline form after DVS testing ([4]; after full sorption/desorption cycle): unchanged after | crystalline form of remaining solids during solubility determination (XRPD) [5]: the crystalline form did not change | Solubility ([5]; 37 °C, pH 1.24, simulated gastric fluid, thermodynamic from solid): ~2900 µg/mL (≈ 7.22 mM) | Solubility ([5]; 37 °C, pH 5.53, water, thermodynamic from solid): ~5 µg/mL (≈ 0.0125 mM) | Solubility ([5]; 0.5 h, pH 1.24): 2480 µg/mL (≈ 6.18 mM) | Solubility ([5]; 2 h, pH 1.24): 2560 µg/mL (≈ 6.38 mM) | Solubility ([5]; 24 h, pH 1.24): 2860 µg/mL (≈ 7.12 mM) | XPRD (remaining solid) ([5]; 24 h, pH 5.53): Unchanged | XPRD (remaining solid) ([5]; simulated gi fluid, 24 h, pH 1.24): Unchanged | XPRD (remaining solid) ([5]; simulated gi fluid, 24 h, pH 4.95): Unchanged | XPRD (remaining solid) ([5]; simulated gi fluid, 24 h, pH 6.45): Unchanged | Purity % ([6]; 0 day (start of stability study), batch 41579-025-C1): 98.12% | Purity % [6, 7]: 98.09% | XRPD result [6, 7]: No change | Purity % [6, 8]: 98.10% | XRPD result [6, 8]: No change | physical and chemical properties after storage ([6]; 7 days under 40° C./75% RH, 60° C., and 92.5% RH): remained stable | Purity % [6, 9]: 98.19% | XRPD result [6, 9]: No change
